Consider two compounds from patent publication US5789417A, “Tricyclic compounds with pharmaceutical activity” (Zeneca Limited, priority 1992, dated 1998).

For data set [1] the following is noted: Cancer Treatment Reports, 1986, 70, 1335; in words; cited from earlier work.
Data set [2] relates to human breast, ovarian and liver cancer. The conditions noted are these: clinical, in words; cited from earlier work.
The test system of data set [3] is lymphoma cell line L5178Y TK-/-. The experiment in a line: Test (d): cytotoxicity to lymphoma cell line L5178Y TK-/- in vitro. The format is cell-based. The settings on record: Mus musculus. An excerpt: (d) An assay which determines the ability of a test compound to be cytotoxic to the lymphoma cell line L5178Y TK-/- in vitro. The lymphoma cell line L5178Y TK-/- is deficient in the enzyme thymidine kinase with phosphorylates thymidine and thus operates to generate a pool of thymidylate when de novo synthesis of thymidylate is prevented by the presence of an effective amount of an inhibitor of thymidylate synthase. The L5178Y TK-/- cell line is thereby more sensitive to the presence of an inhibitor of thymidylate synthase. [L5178Y TK-/- was obtained by mutation of the parent L5178Y cell line which is described by, for example, Fischer et al., Methods in Medical Research, 1964, 10, 247].

Data set [4] concerns human breast cancer cell line MCF-7. The experiment in a line: Test (c): inhibition of growth of human breast cancer cell line MCF-7 in cell culture. The conditions noted are these: MCF7, MCF-7 cell growth. Type of data set: cell-based. An excerpt:
(c) An assay which determines the ability of a test compound to inhibit the growth of the human breast cancer cell line MCF-7 in cell culture. The test is similar to that described by Lippman et al. (Cancer Res., 1976, 36, 4595) and […]

Data set [5] concerns leukaemia cell line L1210. Description: Test (b): inhibition of growth of leukaemia cell line L1210 in cell culture. The format is cell-based. The settings on record: Mus musculus. An excerpt:
(b) An assay which determines the ability of a test compound to inhibit the growth of the leukaemia cell line L1210 in cell culture. The test is similar to that described in UK Patent Specification No. 2065653B and has been described by Jones et al., J. Med. Chem., 1985, 28, 1468;

The target in the next data set is T1, thymidylate synthase (Mus musculus, UniProt P07607).
T1 construct: Thymidylate synthase was obtained in partially purified form from L1210 mouse leukaemia cells; endogenous in cells; host or cells: L1210 mouse leukaemia cells (enzyme partially purified)
Description: Test (a): in vitro inhibition of thymidylate synthase. The format is biochemical. The conditions noted are these: partially purified thymidylate synthase from L1210 mouse leukaemia cells. An excerpt: (a) An in vitro assay which determines the ability of a test compound to inhibit the enzyme thymidylate synthase. Thymidylate synthase was obtained in partially purified form from L1210 mouse leukaemia cells and utilised using the procedures described by Jackman et al. (Cancer Res., 1986, 46, 2810 and Sikora et al., Biochem. Pharmacol. 1988, 37 4047);

T1 sequence (P07607 whole entry): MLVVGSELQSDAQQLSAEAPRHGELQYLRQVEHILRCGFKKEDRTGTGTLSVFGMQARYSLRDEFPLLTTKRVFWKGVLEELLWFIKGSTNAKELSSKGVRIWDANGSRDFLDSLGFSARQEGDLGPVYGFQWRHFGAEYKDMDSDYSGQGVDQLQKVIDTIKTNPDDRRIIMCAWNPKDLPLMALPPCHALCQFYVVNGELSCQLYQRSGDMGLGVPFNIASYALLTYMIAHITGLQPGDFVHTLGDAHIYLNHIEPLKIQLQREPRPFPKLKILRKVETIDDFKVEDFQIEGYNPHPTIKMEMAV

For the compound `C#CCN(Cc1ccc2nc(N)[nH]c(=O)c2c1)c1ccc(C(=O)N[C@@H](CCC(=O)O)C(=O)O)cc1` [CB3717], in data set [1], the toxicity in humans entry is “shows symptoms of toxicity in humans, particularly in relation to the liver and kidney”. The “activity against human breast, ovarian and liver cancer” value in data set [2] is “promising activity against human breast, ovarian and liver cancer”.

In the case of `C#CCN(c1ccc(C(=O)N[C@@H](CCC(=O)O)C(=O)O)cc1)C1CCc2cc3nc(C)[nH]c(=O)c3cc21` (mixture of isomers) [Example 1, N-{p-[N-((6RS)-2-methyl-4-oxo-3,4,7,8-tetrahydro-6H-cyclopenta[g]quinazolin-6-yl)-N-(prop-2-ynyl)amino]benzoyl}-L-glutamic acid], the IC50 in data set [3] amounted to 720 nM; in data set [4], 20 nM; in data set [5], 280 nM; against thymidylate synthase, 7 nM.
